In US20230121031A1, “MASKED FLUOROGENIC COMPOUNDS AND METHODS OF USING THE SAME” (Rutgers, The State University of New Jersey, priority 2021, published 2023):

Assays:
[1] = not told; cited from earlier work
RNABabySpinach (51-nt) = assay: Experimental binding assay (fluorescence) with RNABabySpinach; conditions: Fluorophore (2 μM), RNA (1 μM); for fluorescence intensity with RNABabySpinach: HEPES (pH 8, 20 mM), KCl (100 mM), MgCl2 (10 mM)
Text: FIGS. 4A-4E depict the effect of chemical modifications of HBI on its binding interactions with RNA. FIG. 4A is a crystal structure of DFHBI-RNASpinach (PDB: 4TS2) focusing on the key H-bonding interactions of DFHBI within the G-G-A binding pocket of RNASpinach. […] FIG. 4C is a Pymol view of docked Oct-HBI-RNASpinach, showing that these interactions are disrupted. FIG. 4D is a Pymol view of a docked methyl carbonate-modified HBI-RNASpinach, showing that these interactions are disrupted. FIG. 4E depicts normalized RFUs of HBI and HBI+RNABabySpinach (gray bars) vs. Oct-HBI and Oct-HBI+RNABabySpinach (blue bars). Fluorophore (2 μM), RNA (1 μM), HEPES (pH 8, 20 mM), KCl (100 mM), and MgCl2 (10 mM).
Ligand docking is a useful tool to screen virtual library of molecules to predict binding affinity and conformation of a ligand within a binding pocket. To gain a theoretical insight into the effect of chemical modifications of HBI on its binding interactions with RNA, a robust docking method named Auto-Dock Vina was used (FIGS. 4A-4D). First, the validity of this method was tested by comparing the proposed HBI-RNASpinach docking (FIG. 4B) with the X-ray crystal structure of the native ligand-RNASpinach [FIG. 4A; the co-crystallized ligand in the reported study is 3,5-difluoro-HBI (DFHBI)]. To attain the initial HBI structure for docking, optimizations were performed in gas phase via density functional theory calculations using B3LYP, 6-31G basis set in Gaussian16 software. […] Next, the phenolic oxygen of HBI was replaced with alkyl carbonate groups.

[2] = free (unbound) ligand; cited from earlier work
RNABabySpinach = assay: Fluorescence of H2O2-treated aptamer solutions; format: biochemical; conditions: for rise of fluorescence intensity of ligand+RNABabySpinach+H2O2: H2O2 100 μM
Description: FIGS. 7A-7C depict H2O2 treatment of the aptamer systems. HBI and PBE-HBI (50 μM), RNA (1 μM RNABabySpinach), HEPES (pH 8, 50 mM), KCl (100 mM), MgCl2 (10 mM), H2O2 (100 μM). FIG. 7A depict the time-dependent change in fluorescence intensity upon H2O2 addition. FIG. 7B depicts normalized RFUs at 0, 5, and 60 min. FIG. 7C depicts RNABabySpinach stability against H2O2. TBE-urea PAGE lanes: 1. Native RNA; 2. [HBI+RNA]; 3. [HBI+RNA+H2O2]; 4. [PBE-HBI+RNA]; 5. [PBE-HBI+RNA+H2O2]. For imaging, the gel was stained with SYBR gold.
Next, the change in fluorescence for H2O2-treated aptamer solutions that contain HBI (positive control) and PBE-HBI (FIGS. 7A and 7B) was monitored. The RFU of PBE-HBI+RNABabySpinach was lower than that of HBI+RNABabySpinach by 14-fold at 0 min (no H2O2 present), validating that masking the phenolic oxygen of HBI inhibits RNA binding. Upon addition of H2O2 (100 μM), RFU of PBE-HBI+RNABabySpinach reached up to 92% of RFU of the control in 60 min. […] Upon H2O2 addition, the solution pH increased from 8.0 to 8.4 while ˜10% growth in fluorescence intensity was measured for the HBI-containing samples. This change is attributed to the pH-dependent increase in the phenolate form of HBI (see FIG. 5), which is known to have a higher extinction coefficient than its phenol form. […] To investigate the backbone stability of RNABabySpinach under these oxidative conditions, PAGE analyses of RNABabySpinach solutions containing HBI (FIG. 7C, lanes 2 and 3) and PBE-HBI (FIG. 7C, lanes 4 and 5) were carried out.
Remarkably, the kinetics of H2O2 detection, which involves conversion of PBE-HBI to HBI, followed by HBI-aptamer binding, is fast. The incubation time to achieve 1/2 RFUmax through this process is 6.8 (±0.5) min. Reliable detection of H2O2 is feasible in ˜1 min as the fluorescence intensity doubles. These findings are encouraging and serve as a standard for comparing the detection kinetics for other probes. […] In certain embodiments, reliable detection of elevated ALP may require longer incubations with the respective ABA system (FIG. 3G), as ALP has a relatively small margin of variation. The rates of biomarker detection can be modulated by substituting the HBI carbon framework of the probes (FIGS. 3A-3G) with electron donating (—OMe, —NMe2) or withdrawing (—F, —CF3) groups.

[3] = test system: E. coli competent cells (e.g., BL21-DE3); assay: Fluorescence imaging of H2O2 in E. coli expressing aptamer; format: cell-based; conditions: for fluorescence in E. coli expressing aptamer: imaging buffer with H2O2 (100 μM)
Text: FIGS. 8A-8D depict detection of H2O2 in E. coli utilizing PBAB-MFHBI. FIG. 8A provides a schematic showing the detection of H2O2 in E. coli by fluorescence of MFHBI upon cleavage from PBAB-MFHBI. FIGS. 8B-8D provide fluorescence images of E. coli expressing aptamer plasmid which have been administered MFHBI (FIG. 8B), PBA-MFHBI (FIG. 8C), and PBA-MFHBI in the presence of H2O2 (FIG. 8D). Dual channel: MFHBI+RNA (470/550 nm) and FM 4-64FX (510/640 nm). Scale bar: 10 μm.
For histochemical detection of oxidative stress in living cells, the focus is first on E. coli competent cells (e.g., BL21-DE3) (FIGS. 8A-8D). For the imaging of H2O2, BL21-DE3 cells are transformed with plasmid DNA that contains a T7 promoter and RNABabySpinach or a custom triple baby spinach construct, which allows for the expression of three baby spinach RNA aptamers per transcription cycle. These cells are inoculated with isopropyl β-D-1-thiogalactopyranoside (IPTG) to induce RNA transcription. […] The results can guide additional studies with more complex and biologically relevant cell lines, in particular, any primary or established mammalian cells (e.g., HEK293, HeLa, and HUVEC, inter alia). Detection of endogenous H2O2 generation can also be studied by using molecular stimulants known to trigger mitochondrial ROS production, such as Phorbol 12-myristate 13-acetate (PMA).

BL21-DE3 cells = assay: Fluorescence imaging of H2S in E. coli expressing aptamer; format: cell-based; conditions: upon introduction of H2S (1 mM)
Text: FIGS. 9A-9D depict detection of H2S in E. coli utilizing AEC-MFHBI. FIG. 9A provides a schematic showing the detection of H2S in E. coli by fluorescence of MFHBI upon cleavage from AEC-MFHBI. FIGS. 9B-9D provide fluorescence images of E. coli expressing aptamer plasmid which have been administered MFHBI (FIG. 9B), AEC-MFHBI (FIG. 9C), and AEC-MFHBI in the presence of H2S (FIG. 9D). Dual channel: MFHBI+RNA (470/550 nm) and FM 4-64FX (510/640 nm). Scale bar: 10 μm.
Imaging of hydrogen sulfide (H2S) has been performed in an analogous manner to that which is described for the detection of H2O2. Specifically, BL21-DE3 cells are transformed with plasmid DNA that contains a T7 promoter and RNABabySpinach or a custom triple baby spinach construct, which allows for the expression of three baby spinach RNA aptamers per transcription cycle. These cells are inoculated with isopropyl β-D-1-thiogalactopyranoside (IPTG) to induce RNA transcription. Subsequent immobilization of the cells on glass dish coated with poly-L-lysine (PLL) and incubation with an imaging buffer (IB) containing the imaging agents and/or controls (i.e., MFHBI, FIG. 9B; or AEC-MFHBI, FIGS. 9C-9D), allowed real time fluorescence imaging of SH2 in cellulo.

Compound: 4-hydroxy-benzylidene imidazolinone [HBI, reference compound]
- cell permeability [1]: cell permeable
- fluorescence intensity with RNABabySpinach (RNABabySpinach (51-nt)): 846 RFU
- fluorescence quantum yield Φf [2]: ~0.0001
- growth in fluorescence intensity upon H2O2 addition (RNABabySpinach; H2O2 addition, solution pH increased from 8.0 to 8.4): ~10%

Compound: CCCCCCCCOC(=O)Oc1ccc(/C=C2\N=C(C)N(C)C2=O)cc1 [Oct-HBI]
- fluorescence intensity with RNABabySpinach (RNABabySpinach (51-nt)): 21 RFU
- decrease in fluorescence intensity compared to HBI-RNABabySpinach (RNABabySpinach (51-nt); HEPES pH 8): ~40 times

Compound: CC1=N/C(=C\c2ccc(OCc3ccc(B(O)O)cc3)c(F)c2)C(=O)N1C [PBAB-MFHBI]
- fluorescence in E. coli expressing aptamer, control sample ([3]; exogenous H2O2 absent (FIG. 8C)): very small increase in fluorescence
- fluorescence in E. coli expressing aptamer [3]: rapid increase in fluorescence within one hour

Compound: CC1=N/C(=C\c2ccc(OCc3ccc(B4OC(C)(C)C(C)(C)O4)cc3)cc2)C(=O)N1C [PBE-HBI]
- fluorescence in E. coli expressing aptamer [3]: rapid increase in fluorescence within one hour
- RFU lower than that of HBI+RNABabySpinach (RNABabySpinach; 0 min (no H2O2 present), 50 μM ligand, 1 μM RNA, HEPES pH 8): 14 fold
- RFU as % of RFU of the control (HBI+RNABabySpinach) (RNABabySpinach; H2O2 (100 μM), in 60 min): up to 92%
- time for reliable detection of H2O2 (fluorescence intensity doubles) (RNABabySpinach; H2O2 detection): ~1 min
- incubation time to achieve 1/2 RFUmax (RNABabySpinach; H2O2 detection: conversion to HBI followed by HBI-aptamer binding): 6.8 (±0.5) min
- rise of fluorescence intensity of ligand+RNABabySpinach+H2O2 (RNABabySpinach; after 60 min): ~8 fold
- rise of fluorescence intensity of ligand+RNABabySpinach+H2O2 (RNABabySpinach; at 5 min): ~4 fold

Compound: CC1=N/C(=C\c2ccc(OC(=O)OCCN=[N+]=[N-])c(F)c2)C(=O)N1C [AEC-MFHBI]
- fluorescence in E. coli expressing aptamer (BL21-DE3 cells): rapid increase in fluorescence is observed within one hour
